Experimental data published in article PMC5991599, “Anti‐tumor efficacy of a novel CLK inhibitor via targeting RNA splicing and MYC‐dependent vulnerability” (EMBO Molecular Medicine, 2018).

How the values were obtained:
240 cancer cell lines = test: Panel of growth inhibition assays (OncoPanel 240); type: cell-based; conditions: hematological and solid cancer cell lines; 72 h; read-out: IC50 values, anti-proliferative activity
Protocol: (§1) The KINOMEScan‐based kinase selectivity assay was performed at the DiscoverX Corporation (Fremont, CA, USA). The panel of growth inhibition assay and subsequent bioinformatics analysis (Fig EV1) were performed at Eurofins Inc. (St. Charles, MO, USA), using OncoPanel 240 or 60. Details of the procedures of cell proliferation assay, caspase‐3/7 activity assay, immunoblotting, and immunohistochemistry are described in Appendix Supplementary Methods.
(§2) Panel of growth inhibition assay and subsequence bioinformatics analysis (at […]
(§3) A growth inhibition assay panel and subsequent bioinformatics analysis were performed at Eurofins Inc. (MO, U.S.A.) by utilizing Oncopanel240 or 60.
(§4) According to the study reports from Eurofins Inc., cells were seeded into 384 well plates at a single cell density in standardized media. After 24 hours, the test compounds were added and the plate was incubated continuously for 72 hours. Cells were then fixed and stained to visualize nuclei. The number of nuclei was counted and normalized.
(§5) Cellular response parameters were calculated using nonlinear regression to a sigmoidal single-site dose response model and the IC50 value of each cell line was calculated.
(§6) Genomic features were binned into six distinct categories, each of which was considered to be a “biomarker-positive” grouping: Mutated (non-synonymous, coding, and non-coding mutations), Amplified, Deleted, Overexpressed, Mutated or amplified (gain-of-function), and Mutated or deleted (loss-of-function). Two orthogonal significance tests were performed on each genomic feature as follows.
(§7) Student’s t-test: For each genomic feature within each of the six above categories, IC50 cell count values for biomarker-positive and biomarker-negative groups were […]

786-O = test: Panel of growth inhibition assays (OncoPanel 240); type: cell-based; conditions: Homo sapiens, 786-0; 72 h; kidney cancer; read-out: IC50 (nmol/L) Oncopanel
Protocol: as §1, §2, §3, §4, §5, §6, §7

BV173 = test: Panel of growth inhibition assays (OncoPanel 240); type: cell-based; conditions: Homo sapiens, BV-173; 72 h; leukemia; read-out: IC50 (Oncopanel, cell count)
Protocol: as §1, §2, §3, §4, §5, §6, §7

CCRF-CEM = test: Panel of growth inhibition assays (OncoPanel 240); type: cell-based; conditions: Homo sapiens, 72 h, leukemia, read-out: IC50 (nmol/L) Cell count
Protocol: as §1, §2, §3, §4, §5, §6, §7

CMLT1 = test: Panel of growth inhibition assays (OncoPanel 240); type: cell-based; conditions: CML-T1; 72 h; leukemia; read-out: IC50 (Oncopanel, cell count)
Protocol: as §1, §2, §3, §4, §5, §6, §7

COLO320HSR = test: Panel of growth inhibition assays (OncoPanel 240); type: cell-based; conditions: Homo sapiens, COLO-320-HSR; 72 h; colorectal cancer; read-out: IC50 (nmol/L) Oncopanel
Protocol: as §1, §2, §3, §4, §5, §6, §7

DAUDI = test: Panel of growth inhibition assays (OncoPanel 240); type: cell-based; conditions: Homo sapiens, 72 h, lymphoma, read-out: IC50 (Oncopanel, cell count)
Protocol: as §1, §2, §3, §4, §5, §6, §7

DB = test: Panel of growth inhibition assays (OncoPanel 240); type: cell-based; conditions: Homo sapiens, 72 h, lymphoma, read-out: IC50 (Oncopanel, cell count)
Protocol: as §1, §2, §3, §4, §5, §6, §7

DOHH2 = test: Panel of growth inhibition assays (OncoPanel 240); type: cell-based; conditions: Homo sapiens, DOHH-2; 72 h; lymphoma; read-out: IC50 (Oncopanel, cell count)
Protocol: as §1, §2, §3, §4, §5, §6, §7

EM2 = test: Panel of growth inhibition assays (OncoPanel 240); type: cell-based; conditions: Homo sapiens, EM-2; 72 h; leukemia; read-out: IC50 (Oncopanel, cell count)
Protocol: as §1, §2, §3, §4, §5, §6, §7

HEL9217 = test: Panel of growth inhibition assays (OncoPanel 240); type: cell-based; conditions: Homo sapiens, HEL 92.1.7; 72 h; leukemia; read-out: IC50 (Oncopanel, cell count)
Protocol: as §1, §2, §3, §4, §5, §6, §7

HT = test: Panel of growth inhibition assays (OncoPanel 240); type: cell-based; conditions: Homo sapiens, 72 h, lymphoma, read-out: IC50 (Oncopanel, cell count)
Protocol: as §1, §2, §3, §4, §5, §6, §7

K562 = test: Panel of growth inhibition assays (OncoPanel 240); type: cell-based; conditions: Homo sapiens, 72 h, leukemia, read-out: IC50 (Oncopanel, cell count)
Protocol: as §1, §2, §3, §4, §5, §6, §7

L428 = test: Panel of growth inhibition assays (OncoPanel 240); type: cell-based; conditions: Homo sapiens, L-428; 72 h; lymphoma; read-out: IC50 (Oncopanel, cell count)
Protocol: as §1, §2, §3, §4, §5, §6, §7

MDA-MB-468 = test: Panel of growth inhibition assays (OncoPanel 240); type: cell-based; conditions: Homo sapiens, 72 h, breast cancer, read-out: IC50 (nmol/L) Oncopanel
Protocol: as §1, §2, §3, §4, §5, §6, §7

MEG01 = test: Panel of growth inhibition assays (OncoPanel 240); type: cell-based; conditions: Homo sapiens, MEG-01; 72 h; leukemia; read-out: IC50 (Oncopanel, cell count)
Protocol: as §1, §2, §3, §4, §5, §6, §7

MOLT16 = test: Panel of growth inhibition assays (OncoPanel 240); type: cell-based; conditions: Homo sapiens, MOLT-16; 72 h; leukemia; read-out: IC50 (Oncopanel, cell count)
Protocol: as §1, §2, §3, §4, §5, §6, §7

MV-4-11 = test: Panel of growth inhibition assays (OncoPanel 240); type: cell-based; conditions: Homo sapiens, MV4-11; 72 h; leukemia; read-out: IC50 (Oncopanel, cell count)
Protocol: as §1, §2, §3, §4, §5, §6, §7

NALM6 = test: Panel of growth inhibition assays (OncoPanel 240); type: cell-based; conditions: Homo sapiens, NALM-6; 72 h; leukemia; read-out: IC50 (Oncopanel, cell count)
Protocol: as §1, §2, §3, §4, §5, §6, §7

RAJI = test: Panel of growth inhibition assays (OncoPanel 240); type: cell-based; conditions: Homo sapiens, 72 h, lymphoma, read-out: IC50 (Oncopanel, cell count)
Protocol: as §1, §2, §3, §4, §5, §6, §7

RPMI8226 = test: Panel of growth inhibition assays (OncoPanel 240); type: cell-based; conditions: Homo sapiens, RPMI-8226; 72 h; myeloma; read-out: IC50 (Oncopanel, cell count)
Protocol: as §1, §2, §3, §4, §5, §6, §7

ST486 = test: Panel of growth inhibition assays (OncoPanel 240); type: cell-based; conditions: Homo sapiens, 72 h, lymphoma, read-out: IC50 (Oncopanel, cell count)
Protocol: as §1, §2, §3, §4, §5, §6, §7

THP1 = test: Panel of growth inhibition assays (OncoPanel 240); type: cell-based; conditions: Homo sapiens, THP-1; 72 h; leukemia; read-out: IC50 (Oncopanel, cell count)
Protocol: as §1, §2, §3, §4, §5, §6, §7

U266B1 = test: Panel of growth inhibition assays (OncoPanel 240); type: cell-based; conditions: 72 h; myeloma; read-out: IC50 (Oncopanel, cell count)
Protocol: as §1, §2, §3, §4, §5, §6, §7

NCI-H1048 xenografts = test: Efficacy study in NCI-H1048 xenograft model; type: in vivo, Balb/c nude mice; conditions: 50 mg/kg, twice weekly regimen
Protocol: MDA‐MB‐468 (5 × 10^6), NCI‐H1048 (5 × 10^6), or MV‐4‐11 (2 × 10^6) cells in Matrigel were subcutaneously inoculated into the left flanks of Balb/c nude mice (7‐ to 8‐week‐old females). When xenografted tumors grew to a sufficient volume, the tumor diameter was measured and its volume was calculated as follows:
Tumor volume=long diameter×short diameter×short diameter×(1/2)
Mice having a tumor of size approximately 200 mm^3 were used in efficacy or in vivo pharmacodynamics studies. T‐025 was dissolved in 0.5% methylcellulose solution. For the efficacy study, after randomized grouping, mice were treated with T‐025 twice daily once or twice weekly for 2 or 3 weeks. The mouse tumor volume and body weight were measured every 2–3 days.

other kinases = test: KINOMEScan-based kinase selectivity assay, kinases other than CLK/DYRK1; type: binding
Protocol: as §1

CNc1nc(NCc2ncccn2)c2c(-c3ccc4ncccc4c3)c[nH]c2n1 [T-025, N ^2‐methyl‐N ^4‐[pyrimidin‐2‐ylmethyl]‐5‐[quinolin‐6‐yl]‐7H‐pyrrolo[2,3‐d]pyrimidine‐2,4‐diamine]
IC50 (240 cancer cell lines): 0.03 to 0.3 µM | IC50 (786-O): 239 nmol/L | IC50 (BV173): 0.0218 µM | IC50 (CCRF-CEM): 45.9 nmol/L | IC50 (CMLT1): 0.0697 µM | IC50 (COLO320HSR): 30.1 nmol/L | IC50 (DAUDI): 0.0525 µM | IC50 (DB): 0.0433 µM | IC50 (DOHH2): 0.0395 µM | IC50 (EM2): 0.104 µM | IC50 (HEL9217): 0.0383 µM | IC50 (HT): 0.228 µM | IC50 (K562): 0.129 µM | IC50 (L428): 0.116 µM | IC50 (MDA-MB-468): 47.1 nmol/L | IC50 (MEG01): 0.305 µM | IC50 (MOLT16): 0.0206 µM | IC50 (MV-4-11): 0.0301 µM | IC50 (NALM6): 0.0526 µM | IC50 (RAJI): 0.0847 µM | IC50 (RPMI8226): 0.0993 µM | IC50 (ST486): 0.0571 µM | IC50 (THP1): 0.228 µM | IC50 (U266B1): 0.0351 µM | anti-tumor efficacy, tumor volume (NCI-H1048 xenografts): exhibited in vivo anti‐tumor efficacy | body weight loss (NCI-H1048 xenografts): no significant body weight loss | selectivity for CLK/DYRK1 over other kinases (other kinases): > 300 fold | Kd (other kinases; no other kinase had Kd < 30, read-out: Kd of other kinases outside of CLK and DYRK1 family): ≥ 0.03 µM
